1 molecule from paper PMC8645336, “Benchmarking a highly selective USP30 inhibitor for enhancement of mitophagy and pexophagy” (Life Science Alliance, 2021) can be followed below.

SMILES strings stand for the structures.

In this assay the target is T1, USP25 (Homo sapiens, UniProt Q9UHP3).
T1 sequence (Q9UHP3 1-1055): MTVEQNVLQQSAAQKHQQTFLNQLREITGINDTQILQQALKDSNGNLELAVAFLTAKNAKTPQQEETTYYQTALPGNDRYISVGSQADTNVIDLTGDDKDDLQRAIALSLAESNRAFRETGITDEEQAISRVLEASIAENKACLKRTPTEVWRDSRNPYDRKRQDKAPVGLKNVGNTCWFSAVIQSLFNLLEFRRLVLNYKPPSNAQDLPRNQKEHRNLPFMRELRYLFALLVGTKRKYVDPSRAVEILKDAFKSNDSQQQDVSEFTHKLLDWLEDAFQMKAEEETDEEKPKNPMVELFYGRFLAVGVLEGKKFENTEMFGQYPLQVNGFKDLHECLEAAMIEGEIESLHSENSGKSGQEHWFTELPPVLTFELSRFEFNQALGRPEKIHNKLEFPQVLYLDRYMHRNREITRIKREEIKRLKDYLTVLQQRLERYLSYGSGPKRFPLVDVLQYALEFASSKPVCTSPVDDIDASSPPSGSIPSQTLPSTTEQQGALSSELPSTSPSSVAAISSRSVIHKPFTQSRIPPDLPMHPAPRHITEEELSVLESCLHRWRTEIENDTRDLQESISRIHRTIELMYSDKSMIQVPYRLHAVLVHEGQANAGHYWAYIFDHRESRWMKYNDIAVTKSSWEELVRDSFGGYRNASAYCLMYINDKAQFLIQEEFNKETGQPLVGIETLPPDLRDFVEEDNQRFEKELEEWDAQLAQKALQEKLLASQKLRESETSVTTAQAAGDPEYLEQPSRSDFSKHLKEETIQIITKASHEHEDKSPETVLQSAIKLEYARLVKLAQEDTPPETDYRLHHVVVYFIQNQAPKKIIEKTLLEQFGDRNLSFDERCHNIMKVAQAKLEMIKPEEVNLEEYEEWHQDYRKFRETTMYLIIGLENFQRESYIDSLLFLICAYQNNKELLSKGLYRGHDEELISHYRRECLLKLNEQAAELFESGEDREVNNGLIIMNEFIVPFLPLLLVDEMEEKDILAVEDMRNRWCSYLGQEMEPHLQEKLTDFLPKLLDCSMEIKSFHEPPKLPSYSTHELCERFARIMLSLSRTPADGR
Description: biochemical. On the set-up: Ubiquigent DUB profiler selectivity panel, remaining enzyme activity as % of control. Conditions: read-out: % of control remaining. The essentials: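 In YFP-PRKN-overexpressing hTERT-RPE1 cells, 1 h antimycin A plus oligomycin A (1 μM each) with CMPD-39, then Western blot of TOMM20 ubiquitylation. Target engagement: 2 h compound, then 10 min HA-Ub-PA at 37°C, read as USP30 shift. DUB panel (>40 enzymes) screened at 1-100 μM.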

Take `CC(C)(C)NS(=O)(=O)c1ccc(NC(=O)[C@H](Cc2ccccc2)NC(=O)c2ccc(F)cc2)cc1` [compound 39, CMPD-39]: the remaining activity at 1 µM was 103%, the remaining activity at 10 µM is 94.5% and the remaining activity at 100 µM amounted to 103%.
